The nature of assay [1]: test study of pure Nimbin in humans: analgesic effects. The assay is classed as in vivo. Conditions: pure Nimbin consumed orally (10 mg/day). The procedure: (§1) For example, pure Nimbin has been consumed orally (10 mg/day) in a test study to observe therapeutic/pharmacological effects of the compound various systems/maladies in humans.
The next assay deals with skin. Nature of the assay: topical administration of Nimbin: tone of the skin. The assay is classed as in vivo, humans.
For another assay, the system named is benign tumors. In words: systemic administration of Nimbin: benign tumors. It is filed as in vivo, humans. The procedure:
as §1

The test system of assay [2] is several classes of insects (Lepidoptera, Coleoptera, Homoptera). In words: insecticidal action of Nimbin. The assay is classed as in vivo. The note with it: diamondback moth, imported cabbage worm, cabbage looper, tobacco budworm, Colorado potato beetle, green apple aphid, green peach aphid, potato leafhopper.

On to `COC(=O)C[C@H]1[C@]2(C)C3=C(C)[C@H](c4ccoc4)C[C@H]3O[C@@H]2[C@H](OC(C)=O)[C@@H]2[C@]1(C)C(=O)C=C[C@@]2(C)C(=O)OC` [Nimbin], for which, in assay [1], the analgesic effects result is on record as “analgesic effects”. Also, in the assay on skin, the “effect on tone of the skin” value is “modulates the tone of the skin”. Also, the “action on benign tumors” value in the assay on benign tumors is “regressive actions on benign tumors”. Besides, in assay [2], the insecticidal action entry is “broad spectrum insecticidal action”.

The record behind these values is patent US6545167B1, “Simple and effective manufacturing process for large scale recovery of Nimbin, a Neem seed constituent” (Fortune Bio-Tech Limited, priority 2002, dated 2003).
